Reference: publication PMC8070256, “Feasibility of Developing Radiotracers for MDM2: Synthesis and Preliminary Evaluation of an ^18F-Labeled Analogue of the MDM2 Inhibitor SP-141” (Pharmaceuticals, 2021)
Where “and” joins values, the source holds several entries; their conditions need not be identical. Equal values may be shown once.

What was measured:
[1] = Lipophilicity, shake-flask partitioning between PBS (pH 7.4) and n-octanol; format: physicochemical; conditions: PBS (pH 7.4) / n-octanol, read-out: log D7.4
Description: The lipophilicity of [^18F]1 was determined by its partitioning between PBS (pH 7.4) and n-octanol by the shake-flask method as previously described.
An aliquot of [^18F]1 (0.37 MBq) was added to a mixture of PBS (pH 7.4) and n-octanol (2 mL each, n = 3) in polypropylene tubes. The mixture was vortexed for one minute, and the organic phase was separated by centrifugation (3000 rpm, 5 min). Next, aliquots of octanol (50 µL) and PBS (500 µL) were collected from each tube into preweighed Eppendorf® tubes and measured for radioactivity in an automated gamma counter (Wallac Wizard™, Perkin Elmer, Waltham, MA, USA). Samples were weighed, and the weights were converted to volume according to solvent density. The partition coefficient value was calculated as the ratio of radioactivity (counts per minute (CPM)/mL) in octanol to that in the aqueous phase.

[2] = system: athymic mice bearing HepG2 xenografts; test: Tissue distribution studies in HepG2 xenografts; format: in vivo
Description: Based on the promising results obtained with [^18F]1 in vitro, tissue distribution studies were conducted in athymic mice bearing subcutaneous HepG2 tumor xenografts. HepG2 tumor model was selected because of the higher uptake of [^18F]1 in HepG2 cells and a substantial increase in the uptake in response to co-incubation with 100 µM SP-141, compared to that in MCF-7 cells (Figure 5). Groups of five mice were injected intravenously with [^18F]1 and euthanized at 0.5, 1, or 2 h post injection to determine the tissue distribution of [^18F]1. A separate group of animals (n = 4) were injected intraperitoneally with SP-141 (1.2 mg per mouse; ~140 µM) 30 min before [^18F]1 injection to assess the specificity of tracer uptake in tumors. […] At 30 min post injection, radioactivity levels in most organs were ≥3 %ID/g and decreased to ~2 %ID/g by 2 h.
All animal experiments were conducted in accordance with the regulations of the Duke University Institutional Animal Care and Use Committee (IACUC) under an IACUC-approved protocol. Tissue distribution studies were conducted in mice bearing subcutaneous HepG2 tumor xenografts. To generate the tumor model, male athymic mice (Jackson Labs, Farmington, CT, USA) were injected with 5 × 10^6 HepG2 cells suspended in DMEM and Matrigel (Corning®, Corning, NY, USA, 1:1, 100 µL) in the flank; tissue distribution studies were initiated when the tumor volume reached 200 mm^3. For these studies, groups of five mice were injected with [^18F]1 by the intravenous route and euthanized at 0.5, 1, or 2 h post injection (n = 5 per time point) to assess the tissue distribution of [^18F]1 as described previously. A separate group of animals (n = 4) was injected with SP-141 (1.2 mg per mouse; ~140 µM) by intraperitoneal injection 30 min before [^18F]1 injection to assess the specificity of tracer uptake. The concentration of ^18F activity was calculated as the percentage injected dose per gram tissue (%ID/g).

[3] = In vitro stability in human serum (HPLC); format: in vitro ADME; conditions: 37 °C, 1, 2 and 3 h
Description: Next, the in vitro stability of [^18F]1 was examined by incubating the labeled compound with human serum for up to 3 h at 37 °C, followed by HPLC analysis of the samples using gradient elution conditions.
The stability of [^18F]1 in human serum (Innovative Research Inc., Novi, MI, USA) was analyzed by HPLC using a Chromolith® Performance RP-18e column (4.6 × 100 mm, Millipore Sigma, Burlington, MA, USA), eluted with gradient mixtures of sodium acetate buffer (0.05 M, pH 5.5) and ethanol. The percentage of ethanol was kept at 5% for the first 5 min at a flow rate of 0.5 mL and then increased to 90% over 15 min at a flow rate of 1 mL/min. The stability studies were initiated by incubating human serum (0.5 mL) with [^18F]1 (6.66 MBq in 20 µL ethanol) at 37 °C. Samples (100 µL) were analyzed by HPLC after 0, 1, 2, and 3 h incubation. At each time point, the serum sample was spiked with the nonradioactive 1 (10 µg) before HPLC analysis for identity confirmation of the parent peak ([^18F]1).

[4] = 1 h Block: SP-141 (1.2 mg) i.p. 30 min before i.v. [^18F]1

logD [1]: 2.35 ± 0.19 | Biodistribution, Blood ([2]; 30 min post i.v. injection): 4.2 ± 0.6 %ID/g | Biodistribution, Bone ([2]; 30 min post i.v. injection): 3.1 ± 0.6 %ID/g | Biodistribution, Brain ([2]; 30 min post i.v. injection): 2.9 ± 0.8 %ID/g | Biodistribution, Heart ([2]; 30 min post i.v. injection): 4.1 ± 0.7 %ID/g | Biodistribution, Kidneys ([2]; 30 min post i.v. injection): 3.7 ± 0.8 %ID/g | Biodistribution, Large Intestine ([2]; 30 min post i.v. injection): 6.1 ± 1.7 %ID/g | Biodistribution, Liver ([2]; 30 min post i.v. injection): 3.2 ± 0.5 %ID/g | Biodistribution, Lungs ([2]; 30 min post i.v. injection): 3.9 ± 0.6 %ID/g | Biodistribution, Muscle ([2]; 30 min post i.v. injection): 3.5 ± 0.8 %ID/g | Biodistribution, Skin ([2]; 30 min post i.v. injection): 3.7 ± 0.7 %ID/g | Biodistribution, Small Intestine ([2]; 30 min post i.v. injection): 3.9 ± 1.0 %ID/g | Biodistribution, Spleen ([2]; 30 min post i.v. injection): 3.3 ± 0.4 %ID/g | Biodistribution, Stomach ([2]; 30 min post i.v. injection): 5.1 ± 2.0 %ID/g | Biodistribution, Tumor (HepG2 xenograft) ([2]; 30 min post i.v. injection): 3.3 ± 0.3 %ID/g | Biodistribution, Blood [2, 4]: 2.7 ± 0.9 %ID/g | Biodistribution, Bone [2, 4]: 1.9 ± 0.4 %ID/g | Biodistribution, Brain [2, 4]: 3.3 ± 0.5 %ID/g | Biodistribution, Heart [2, 4]: 3.7 ± 0.3 %ID/g | Biodistribution, Kidneys [2, 4]: 3.8 ± 0.4 %ID/g | Biodistribution, Large Intestine [2, 4]: 3.4 ± 1.4 %ID/g | Biodistribution, Liver [2, 4]: 3.3 ± 0.6 %ID/g | Biodistribution, Lungs [2, 4]: 3.5 ± 0.8 %ID/g | Biodistribution, Muscle [2, 4]: 3.3 ± 0.4 %ID/g | Biodistribution, Skin [2, 4]: 3.0 ± 0.7 %ID/g | Biodistribution, Small Intestine [2, 4]: 4.1 ± 0.3 %ID/g | Biodistribution, Spleen [2, 4]: 3.0 ± 0.6 %ID/g | Biodistribution, Stomach [2, 4]: 1.6 ± 1.2 %ID/g | Biodistribution, Tumor (HepG2 xenograft) [2, 4]: 3.2 ± 0.7 %ID/g | Biodistribution, Blood ([2]; 1 h post i.v. injection): 4.1 ± 0.6 %ID/g | Biodistribution, Bone ([2]; 1 h post i.v. injection): 3.6 ± 1.0 %ID/g | Biodistribution, Brain ([2]; 1 h post i.v. injection): 2.6 ± 0.8 %ID/g | Biodistribution, Heart ([2]; 1 h post i.v. injection): 4.0 ± 0.7 %ID/g | Biodistribution, Kidneys ([2]; 1 h post i.v. injection): 3.3 ± 0.6 %ID/g | Biodistribution, Large Intestine ([2]; 1 h post i.v. injection): 7.7 ± 1.8 %ID/g | Biodistribution, Liver ([2]; 1 h post i.v. injection): 2.8 ± 0.4 %ID/g | Biodistribution, Lungs ([2]; 1 h post i.v. injection): 3.8 ± 0.7 %ID/g | Biodistribution, Muscle ([2]; 1 h post i.v. injection): 2.6 ± 0.6 %ID/g | Biodistribution, Skin ([2]; 1 h post i.v. injection): 3.4 ± 0.5 %ID/g | Biodistribution, Small Intestine ([2]; 1 h post i.v. injection): 4.0 ± 0.7 %ID/g | Biodistribution, Spleen ([2]; 1 h post i.v. injection): 2.7 ± 0.7 %ID/g | Biodistribution, Stomach ([2]; 1 h post i.v. injection): 2.7 ± 0.8 %ID/g | Biodistribution, Tumor (HepG2 xenograft) ([2]; 1 h post i.v. injection): 3.0 ± 0.7 %ID/g | Biodistribution, Blood ([2]; 2 h post i.v. injection): 3.3 ± 0.8 %ID/g | Biodistribution, Bone ([2]; 2 h post i.v. injection): 5.4 ± 0.8 %ID/g | Biodistribution, Brain ([2]; 2 h post i.v. injection): 2.0 ± 0.7 %ID/g | Biodistribution, Heart ([2]; 2 h post i.v. injection): 3.3 ± 0.9 %ID/g | Biodistribution, Kidneys ([2]; 2 h post i.v. injection): 2.4 ± 0.6 %ID/g | Biodistribution, Large Intestine ([2]; 2 h post i.v. injection): 7.1 ± 2.9 %ID/g | Biodistribution, Liver ([2]; 2 h post i.v. injection): 2.4 ± 0.5 %ID/g | Biodistribution, Lungs ([2]; 2 h post i.v. injection): 2.1 ± 0.8 %ID/g | Biodistribution, Muscle ([2]; 2 h post i.v. injection): 2.6 ± 0.7 %ID/g | Biodistribution, Skin ([2]; 2 h post i.v. injection): 3.1 ± 0.4 %ID/g | Biodistribution, Small Intestine ([2]; 2 h post i.v. injection): 3.0 ± 0.5 %ID/g | Biodistribution, Spleen ([2]; 2 h post i.v. injection): 2.1 ± 0.4 %ID/g | Biodistribution, Stomach ([2]; 2 h post i.v. injection): 2.1 ± 0.7 %ID/g | Biodistribution, Tumor (HepG2 xenograft) ([2]; 2 h post i.v. injection): 3.0 ± 0.8 %ID/g | Radioactivity levels in most organs / normal tissues ([2]; 2 h post injection): ~ 2 %ID/g and 2–3 %ID/g | Tumor-to-muscle ratio ([2]; 2 h post injection): 1.14 ± 0.18 | Tumor-to-normal tissue (tumor-to-background) ratios ([2]; 2 h post injection): < 2 | Tumor uptake and retention in HepG2 xenografts ([2]; over the 2-h observation period): ~ 3 %ID/g | Percentage of intact [^18F]1 [3]: ~ 100%
Compound: [18F]CCOc1ccc2[nH]c3c(-c4cccc5ccccc45)nccc3c2c1 [[^18F]1]
